Data from PMC9658586, “1,4-Naphthoquinone Motif in the Synthesis of New Thiopyrano[2,3-d]thiazoles as Potential Biologically Active Compounds” (Molecules, 2022).
Where two headings read alike, the source gives them in different places.

Legend:
[1] = system: human epidermoid cervix carcinoma KB3-1 cells; assay: MTT cell viability assay, KB3-1; format: cell-based
Description: (§1) The MTT cell viability assay was performed 72 h after cells treatment with various concentrations of studied compounds and doxorubicin, a reference drug. […] It is known that ABCB1 (P-glycoprotein), MRP1/ABCC1 (multidrug resistance protein 1), and BCRP/BCG2 (breast cancer resistance protein) have been reported to be key players in resistance to chemotherapy. […] The p53 has diverse mutations in almost all human tumors, stimulating their hyper-proliferation, invasion/metastasis, and thus, influencing the potency of various chemotherapeutics (i.e., platins and anti-metabolites).
(§2) Human colon carcinoma HCT116 cells, human breast adenocarcinoma cells of MCF-7 line, human T-leukemia Jurkat cells, human chronic myelogenous leukemia K562 cells, and human keratinocytes of HaCaT line were from the Cell Collection of R.E. Kavetsky Institute of Experimental Pathology, Oncology and Radiobiology (Kyiv, Ukraine). Murine macrophages of J774.2 line were a generous gift from Professor Sir John Vane (William Harvey Research Institute, London, UK) via Professor Janusz Marcinkiewicz (Jagiellonian University Medical College, Krakow, Poland). Human colon carcinoma HCT116 p53-/- cells with knockdown of P53 gene, as well as human epidermoid cervix carcinoma KB3-1 cells and its ABCB1-overexpressing subline KBC-1, were kindly provided by Professor W. Berger (Institute of Cancer Research, Medical University of Vienna, Austria). […] Human leukemia monocytic THP-1 cells were kindly provided by Professor M. Herrmann (Department of Internal Medicine, Institute for Clinical Immunology and Rheumatology, University of Erlangen-Nuremberg, Germany). Cells were cultured in DMEM or RPMI-1640 medium supplemented with 10% fetal bovine serum (all were purchased from Biowest, Nuaille, France) at 37 °C in a humidified atmosphere containing 5% CO2.
(§3) MTT assay was used to examine the viability of tumor and pseudo-normal cells after their treatment with studied thiopyrano[2,3-d]thiazole derivatives and doxorubicin (Actavis S.R.L., Bucharest, Romania). Cells were seeded in 96-well plates at a density of 3–5 × 103. After 24 h, cells were treated with compound […], 1,4-NQ (0.1–100 µM), and doxorubicin (0.1–100 µM). After incubation for 72 h, MTT reagent (Sigma-Aldrich, St. Louis, MO, USA) was added to each well, according to the Sigma-Aldrich protocol. An absorbance Reader BioTek ELx800 (BioTek Instruments, Inc., Winooski, VT, USA) was used to measure the reaction product.

[2] = system: Human colon carcinoma HCT116 cells (HCT116wt); assay: MTT cell viability assay, HCT116wt; format: cell-based
Description: as §1, §2, §3

[3] = system: Human colon carcinoma HCT116 p53-/- cells; assay: MTT cell viability assay, HCT116 p53-/-; format: cell-based; conditions: MTT, 72 h, read-out: IC50, HCT116 p53-/-
Description: as §1, §2, §3

[4] = system: human breast adenocarcinoma cells of MCF-7 line; assay: MTT cell viability assay, MCF-7; format: cell-based
Description: as §1, §2, §3

[5] = system: Murine macrophages of J774.2 line; assay: MTT cell viability assay, J774.2; format: cell-based; conditions: pseudo-normal murine macrophages
Description: as §1, §2, §3

[6] = system: human chronic myelogenous leukemia K562 cells; assay: MTT cell viability assay, K562; format: cell-based
Description: as §1, §2, §3

[7] = system: KBC-1 (ABCB1-overexpressing subline of KB3-1); assay: MTT cell viability assay, KBC-1; format: cell-based; conditions: Homo sapiens, 72 h
Description: as §1
as §2, with “Cells were cultured in DMEM or RPMI-1640 medium supplemented with 10% fetal bovine serum (all were purchased from Biowest, Nuaille, France) at 37 °C in a humidified atmosphere containing 5% CO2.” left out
MTT assay was used to examine the viability of tumor and pseudo-normal cells after their treatment with studied thiopyrano[2,3-d]thiazole derivatives and doxorubicin (Actavis S.R.L., Bucharest, Romania). […] An absorbance Reader BioTek ELx800 (BioTek Instruments, Inc., Winooski, VT, USA) was used to measure the reaction product.

[8] = system: isolated normal human peripheral blood lymphocytes; assay: MTT cell viability assay, isolated lymphocytes; format: cell-based; conditions: Homo sapiens, Lymphocyte, 72 h, read-out: IC50, Isolated lymphocytes, MTT, 72 h, normal human peripheral blood lymphocytes
Description: We continued the cytotoxicity study of synthesized derivatives 3.1–3.6 toward tumor and pseudo-normal cells in vitro. The MTT cell viability assay was performed 72 h after cells treatment with various concentrations of studied compounds and doxorubicin, a reference drug. […] The THP-1 cells, monocytes isolated from peripheral blood from an acute monocytic leukemia patient, were also sensitive to the 3.6 treatment. […] The 3.6 inhibited the viability of epidermoid carcinoma (KB3-1 and its ABCB1-overexpressing subline KBC-1) and colon carcinoma (HCT116wt and its p53 knockdown subline HCT116 p53-/-) cells. It is known that ABCB1 (P-glycoprotein), MRP1/ABCC1 (multidrug resistance protein 1), and BCRP/BCG2 (breast cancer resistance protein) have been reported to be key players in resistance to chemotherapy. […] Thus, the p53 status of colon carcinoma cells influenced the anti-tumor effects of the studied 3,5,10,11-tetrahydro-2H-benzo[6,7]thiochromeno[2,3-d][1, 3]thiazole-2,5,10-trione. The p53 has diverse mutations in almost all human tumors, stimulating their hyper-proliferation, invasion/metastasis, and thus, influencing the potency of various chemotherapeutics (i.e., platins and anti-metabolites). […] Based on our findings, one can assume a p53-dependent mode of action for 3.6 toward colon cancer cells.
as §3
The study protocol with human lymphocytes isolated from healthy adult peripheral blood was approved by BioEthics Committee of the Institute of Cell Biology of National Academy of Sciences of Ukraine (protocol No 2 from 27 January 2019), and with written consent of donor.

salmon sperm DNA = assay: DNA/methyl green colorimetric (replacement) assay; format: binding; conditions: 1µM
Description: In addition, we used DNA/methyl green colorimetric assay to study the possible interaction of compound 3.6 in DNA. […] This assay was used to measure the displacement of methyl green from DNA by compounds with the ability to intercalate DNA [54].
The capacity of the tested compounds to intercalate into salmon sperm DNA was determined using the methyl green assay. Briefly, salmon sperm DNA (10 mg/mL) was incubated for 1 h at 37 °C with 15 µL of methyl green solution (1 mg/mL in H2O). The compounds were added at concentrations 1 and 10 µM/mL and incubated at 37 °C in the dark for 2 h. Reduction of the absorbance of methyl green at 642 nm induced by the test compounds was measured with a multiplate reader, Plate Reader BioTek Lx80 ( BioTek Instruments, Inc., Winooski, VT, USA). Doxorubicin, a well-known intercalating agent, was used as a positive control.

[9] = system: panel of sixty cancer cell lines; assay: NCI single-dose (10 μM) anticancer screen, sulforhodamine B, 60-cell-line panel; format: cell-based, human; conditions: 48 h
Description: (§4) Considering the results of previous studies of fused thiazolidinones and their analogs, a series of thiopyrano[2,3-d]thiazoles with naphthoquinone fragments in the structure were studied for their anticancer activity. Thus, synthesized thiopyranothiazole derivatives 3.5 and 3.6 were selected by the National Cancer Institute (NCI), U.S., for their anticancer activity at 10 μM concentration toward a panel of sixty cancer cell lines representing nine different types (leukemia, melanoma, lung, colon, CNS, ovarian, renal, prostate, and breast cancers) (Figures S13–S14). Selection for screening based on new derivatives’ ability to add diversity to the NCI small molecules collection and anticancer assays were performed according to the NCI guidelines and protocols previously described. The compounds were added at the mentioned concentration, and the cell cultures were incubated for 48 h. The results for each compound were reported as the growth percent (GP%) of treated cells compared with untreated control cells.
Anticancer in vitro assay was performed on the human tumor cell lines panel derived from nine neoplastic diseases by the protocol of the Drug Evaluation Branch, National Cancer Institute, Bethesda, MD, USA [44, 45, 46]. Tested compounds were added to the culture at a single concentration (10^−5 M), and the cultures were incubated for 48 h. Endpoint determinations were made with a protein binding dye, sulforhodamine B. Results for each tested compound were reported as the GP% of the treated cells compared to untreated control cells. GP% was spectrophotometrically evaluated vs. controls not treated with test agents.

RPMI-8226/Leukemia = assay: NCI single-dose screen, RPMI-8226; format: cell-based, human; conditions: 10 μM, 48 h
Description: as §4
(§5) Anticancer in vitro assay was performed on the human tumor cell lines panel derived from nine neoplastic diseases by the protocol of the Drug Evaluation Branch, National Cancer Institute, Bethesda, MD, USA [44, 45, 46]. […] GP% was spectrophotometrically evaluated vs. controls not treated with test agents.

SR/Leukemia = assay: NCI single-dose screen, SR; format: cell-based, human; conditions: 10 μM, 48 h
Description: as §4, §5

[10] = system: EKVX/Non-Small Cell Lung Cancer; assay: NCI single-dose screen, EKVX; format: cell-based, human; conditions: 10 μM, 48 h
Description: as §4, §5

IGROV1/Ovarian Cancer = assay: NCI single-dose screen, IGROV1; format: cell-based, human; conditions: 10 μM, 48 h
Description: as §4, §5

UO-31/Renal Cancer = assay: NCI single-dose screen, UO-31; format: cell-based, human; conditions: 10 μM, 48 h
Description: as §4, §5

T-47D/Breast Cancer = assay: NCI single-dose screen, T-47D; format: cell-based, human; conditions: 10 μM, 48 h
Description: as §4, §5

| IC50 ([1]; Homo sapiens, KB 3-1, 72 h) [µM] | IC50 ([2]; Homo sapiens, HCT-116, 72 h) [µM] | IC50 ([3]; Homo sapiens, HCT-116) [µM] | IC50 ([4]; Homo sapiens, MCF7, 72 h) [µM] | IC50 ([6]; Homo sapiens, K562, 72 h) [µM] | melting point [°C] | Compound | IC50 ([5]; Mus musculus, J774.2, 72 h) [µM] | also measured |
| --- | --- | --- | --- | --- | --- | --- | --- | --- |
| 26 | 5.54 | 25.2 | 34.3 | 7.11 | 230 to 232 | CC1(C)C2=C(Sc3[nH]c(=O)sc31)C(=O)c1ccccc1C2=O [Compound 3.4, 11,11-Dimethyl-3,11-dihydro-2H-benzo[6,7]thiochromeno[2,3-d]thiazole-2,5,10-trione] | 11.1 | – |
| 39.2 | 6.81 | > 50 | 8.47 | 26 | 330 to 332 | O=C1C2=C(C(=O)c3ccccc31)C(C=Cc1ccccc1[N+](=O)[O-])c1sc(=O)[nH]c1S2 (stereo not shown) [Compound 3.2, 11-(2-Nitrostyryl)-3,11-dihydro-2H-benzo[6,7]thiochromeno[2,3-d]thiazole-2,5,10-trione] | 0.74 | – |
| > 50 | 43.6 | > 50 | > 50 | > 50 | 231 to 233 | O=C1C2=C(C(=O)c3ccccc31)C1(CCCC1)c1sc(=O)[nH]c1S2 [Compound 3.5, Spiro[benzo[6,7]thiochromeno[2,3-d]thiazole-11,1’-cyclopentane]-2,5,10(3H)-trione] | > 50 | Mean Growth, % ([9]; growth percent vs untreated control, 60 cell lines): 88.33%; Range of Growth, % ([9]; range over 60 cell lines): 51.21 to 126.93%; Most Sensitive Cell Line Growth, % (RPMI-8226/Leukemia) (RPMI-8226/Leukemia): 53.82%; Most Sensitive Cell Line Growth, % (SR/Leukemia) (SR/Leukemia): 59.89%; Most Sensitive Cell Line Growth, % (EKVX/Non-Small Cell Lung Cancer) [10]: 54.98%; Most Sensitive Cell Line Growth, % (IGROV1/Ovarian Cancer) (IGROV1/Ovarian Cancer): 55.15%; Most Sensitive Cell Line Growth, % (UO-31/Renal Cancer) (UO-31/Renal Cancer): 55.54%; Most Sensitive Cell Line Growth, % (T-47D/Breast Cancer) (T-47D/Breast Cancer): 51.21% |

Continued, compound first:

| Compound | IC50 ([1]; Homo sapiens, KB 3-1, 72 h) [µM] | IC50 ([2]; Homo sapiens, HCT-116, 72 h) [µM] | IC50 ([3]; Homo sapiens, HCT-116) [µM] | IC50 ([4]; Homo sapiens, MCF7, 72 h) [µM] | IC50 ([6]; Homo sapiens, K562, 72 h) [µM] | melting point [°C] | IC50 ([5]; Mus musculus, J774.2, 72 h) [µM] | also measured |
| --- | --- | --- | --- | --- | --- | --- | --- | --- |
| O=C1C2=C(C(=O)c3ccccc31)C(C=Cc1ccccc1)c1sc(=O)[nH]c1S2 (stereo not shown) [Compound 3.1, 11-Styryl-3,11-dihydro-2H-benzo [6,7]thiochromeno [2,3-d]thiazole-2,5,10-trione] | 37 | 29.2 | 40.3 | 9.19 | 43.7 | 338 to 340 | 24.4 | – |
| 11-(2-Phenylprop-1-en-1-yl)-3,11-dihydro-2H-benzo[6,7]thiochromeno[2,3-d]thiazole-2,5,10-trione [Compound 3.3] | – | – | – | – | – | – | – | IC50 ([1]; 72 h): 28.8 µM; IC50 ([2]; 72 h): 15.8 µM; IC50 [3]: 11.1 µM; IC50 ([4]; 72 h): 26.8 µM; IC50 ([5]; 72 h): 30.5 µM; IC50 ([6]; 72 h): 13 µM |
| O=C1C=CC(=O)c2ccccc21 [1,4-NQ, 1,4-naphthoquinone] | 20.7 | – | – | – | – | – | – | IC50 [7]: 8.33 µM; IC50 [8]: 62.9 µM; percentage of methyl green replacement (salmon sperm DNA): 65% |
